{"source": "paper PMC12992715", "about": "“Dual interference with host neuropeptide signaling allows parasitoid wasp to hijack host sugar metabolism” (The EMBO Journal, 2025)", "key": {"PxsNPFR [1]": {"test_system": "PxsNPFR", "experiment": "Intracellular Ca2+ mobilisation (Fura-2/AM) in PxsNPFR-expressing HEK293 cells", "format": "cell-based, Plutella xylostella", "settings": "2.5 μM Fura-2/AM, excitation 340/380 nm, 37 °C, result in words", "experimental": "To establish a stable HEK293/PxsNPFR cell line, the pcDNA 3.1^(+)/PxsNPFR plasmid was transfected into the HEK293 cells using Lipofectamine 3000 (Invitrogen). Two days later, 800 μg/ml G418 (Sangon Biotech) was added to the culture medium to select cells that stably expressed the receptor. After three weeks, resistant clones were trypsinised in cloning cylinders and transferred to 12-well plastic plates for expansion.\nTo measure the intracellular calcium flux, the transfected cells HEK293/PxsNPFR were harvested with PBS solution containing 0.02% EDTA, rinsed twice with PBS, and resuspended in Hanks’ balanced salt solution containing 0.025% BSA. Cells were then loaded with 2.5 μM Fura-2/AM (Dojindo) for 30 min at 37 °C and washed twice in Hanks’ balanced saline solution. These cells were stimulated with the indicated concentrations of synthetic sNPF, and Hanks’ solution was used as a negative control. The calcium flux was measured using excitation at 340 nm and 380 nm on a SpectraMax iD5 Multi-Mode Microplate Reader (Molecular Devices) at 37 °C."}, "P. xylostella larvae [2]": {"test_system": "P. xylostella larvae", "experiment": "Circulating haemolymph trehalose after injection of synthetic sNPF peptides, venom, CvBV or teratocyte content", "format": "in vivo, Plutella xylostella", "settings": "words", "procedure": "Microinjections were performed under a Stemi 2000C microscope (Zeiss) using glass capillary injection needles and an Eppendorf Femtojet (Eppendorf) with a microcontroller (Narishige). To confirm the function of bovine insulin on hosts, 1 μg bovine insulin (Sigma-Aldrich, I0305000) was injected into the middle 3rd instar P. xylostella larvae. To identify the effect of each parasitic factor on hosts, 0.05 FE CvBV or 0.05 VRE venom was injected into the abdomen of the middle 3rd instar P. xylostella larva (Wang et al, [2018]; Yu et al, [2007]). 1 TE teratocytes’ content was microinjected into the early 4th instar P. xylostella larvae. To confirm the function of each synthetic sNPF peptide, 0.005 ng, 0.05 ng, or 0.5 ng of each peptide was injected into the middle 3rd instar P. xylostella larvae in a volume of 0.1 μl/per larva once per day for 3 consecutive days.\nFor P. xylostella larvae, 1 μl of haemolymph from the moth was diluted 60-fold in cold PBS and subjected to trehalose determination. The fat body of P. xylostella larvae was homogenised in 200 μl of cold PBS. Half of the homogenate was centrifuged at 13,000 rpm for 15 min, and the supernatant was used for protein content determination by Bradford Reagent (Invitrogen). The rest was heated at 70 °C for 5 min followed by centrifuging at 13,000 rpm for 15 min, and the supernatant was used for glycogen determination.\nTrehalose content determination was performed by the anthrone sulfate method. 15 μL of the sample was incubated with 15 μL of 1% H2SO4 at 90 °C for 10 min, then 15 μL of 30% KOH was added and incubated at 90 °C for 10 min. Finally, 300 μl of 0.2% anthrone (Sigma-Aldrich) solution in 96% H2SO4 was added and incubated at 90 °C for 10 min. All reactions were stopped by immersion in ice. To create a trehalose standard curve, 15 μl of trehalose standards (Sigma-Aldrich) were treated similarly as a sample. Finally, 100 μl of each sample was added to a 96-well plate. The absorbance of samples was then measured at 630 nm on a SpectraMax® iD5 Multi-Mode Microplate Reader (Molecular Devices), and the trehalose levels were calculated based on the standard curve and normalised by protein content or sample volume."}, "[3]": {"test_system": "P. xylostella fat body and midgut transcriptome", "experiment": "RNA sequencing of fat body and midgut after injection of sPxsNPF-1 or sCvsNPF", "format": "in vivo, Plutella xylostella", "procedure": "The fat body and midgut of the 4 M instar P. xylostella larvae were dissected under the microscope in PBS on ice. Total RNA was isolated using an RNA isolater Total RNA Extraction Reagent (Vazyme) according to the manufacturer’s instructions. The quality and the concentration of the isolated total RNA were estimated by electrophoresis and a NanoDrop 2000. The transcriptome sequencing was performed at Annoroad Gene Technology. cDNA libraries for transcriptome sequencing made from the total RNA were prepared using the NEBNext Ultra RNA Library Prep Kit for Illumina in conjunction with the NEBNext Poly (A) mRNA Magnetic Isolation Module. Libraries were validated and quantified before being pooled and sequenced on an Illumina HiSeq 2000 (Illumina) sequencer with a 150 bp paired-end protocol. The raw reads were filtered by removing adaptor sequences, empty reads and low-quality sequences (reads with unknown sequences ‘N’). Sequences were de novo assembled using Trinity on a Galaxy Portal, and both ends were sequenced. The fragments per kilobase of transcript per million mapped reads (FPKM) method was used to analyse the expression profiles of all unigenes in different samples. Read counts were input into DESeq2 to calculate differential gene expression and statistical significance. […]"}, "PxsNPFR [4]": {"test_system": "PxsNPFR", "experiment": "cAMP-Glo assay: inhibition of forskolin-induced cAMP accumulation in PxsNPFR-expressing HEK293 cells", "format": "cell-based, Plutella xylostella", "experimental": "Cells were treated with 10 μM forskolin and various concentrations of the indicated peptide for 15 min at 37 °C (n = 3). […] Data are represented as mean ± SEM. *P<0.05, **P< 0.01, ***P< 0.005, not shown P > 0.05. […] (A) Two-tailed unpaired Student’s t test; (B–H) one-way ANOVA and Tukey’s multiple comparison tests.\nMeasurement of cyclic AMP in the HEK293/PxsNPFR cell line was accomplished with the cAMP-Glo™ Assay (Promega) according to the manufacturer’s instructions. Cells were seeded into the 96-well tissue culture plate (Thermo) overnight to grow at a recommended cell density (2500-10,000 cells/well). For the assay, cells were washed three times with PBS and then stimulated with 10 μM forskolin (Beyotime, added with 500 μM IBMX, Sigma-Aldrich) alone or 10 μM forskolin (added with 500 μM IBMX) with the indicated concentrations of synthetic sNPF for 15 min at room temperature. To generate a cAMP standard curve, cAMP standards supplied with the kit were prepared in a separate 96-well. Chemiluminescent signals were measured for 1 s/well on a SpectraMax iD5 Multi-Mode Microplate Reader (Molecular Devices)."}, "P. xylostella larvae [5]": {"test_system": "P. xylostella larvae", "experiment": "Feeding time and feeding interval time", "format": "in vivo, Plutella xylostella", "settings": "sPxsNPF-1-injected, middle 4th instar; words", "description": "Appendix Figure S4. PxsNPF is mainly expressed in the CNS and midgut-trachea of the host as an appetite-suppressing hormone\n(A) Relative mRNA levels of PxsNPF in different tissues of non-parasitized and C. vestalis-parasitized host larvae at late 3rd instar (n = 3). (B) Left: schematic diagram of the general composition and cell types of the midgut. EC, enterocyte; ISC, intestinal stem cell; EB, enteroblast; EE, enteroendocrine cell; BM, basement membrane; VM, visceral muscle. Right: PxsNPF (red) is expressed in the tracheae of the midgut (white arrowheads). Nuclei were labelled by DAPI (blue). NP: non-parasitized hosts, P: parasitized hosts. Scale bars, 200 μm. (C) Immunostaining of PxsNPF prepropeptide (red) in the whole midgut of non-parasitized and parasitized P. xylostella larvae at late 3rd-instar. White dashed boxes indicate areas magnified in Fig.\n5E. Nuclei were labelled by DAPI (blue). Scale bar: 500 μm. (D) Feeding time (left, n = 40 for grey, n = 23 for blue, n = 54 for red, n = 29 for purple) and interval time (right, n = 35 for grey, n = 13 for blue, n = 33 for red, n = 25 for purple) of non-parasitized, C. vestalis-parasitized, and sPxsNPF-1-injected and sCvsNPF-injected P. xylostella larvae at middle 4th-instar during feeding behaviour. Data are represented as […]\nTwo-tailed unpaired Student’s t-test, except for (D) (One-way ANOVA and Tukey’s multiple comparison tests). […]"}}, "note": "No end group written: not given here.", "data": [{"substance": "SVRSPSRRLRF-NH2 [sPxsNPF-1, synthetic short neuropeptide F-1 of Plutella xylostella]", "values": [{"measurement": "intracellular Ca2+ mobilisation", "setting": "PxsNPFR [1]", "result": "elicited a rapid and transient increase in intracellular Ca^2+ mobilisation"}, {"measurement": "effect on haemolymph trehalose level, dose dependence", "setting": "P. xylostella larvae [2]; 0.005, 0.05, 0.5 ng per larva", "result": "dependent on the concentration"}, {"measurement": "effect on haemolymph trehalose level", "setting": "P. xylostella larvae [2]; synthetic PxsNPFs, injected into 3M larvae, measured at 4M, high dosage 0.5 ng per larva, n = 4-6", "result": "increased the haemolymph trehalose level"}, {"measurement": "DEGs common to sPxsNPF-1 and sCvsNPF sets", "setting": "[3]; 157 transcripts in both sets", "result": 3.6, "unit": "%"}, {"measurement": "expression of genes involved in Gq activation (PLC, IP3)", "setting": "[3]; RNA-seq after injection, words", "result": "significantly upregulated after sPxsNPF-1 injection"}, {"measurement": "inhibition of forskolin-stimulated cAMP accumulation", "setting": "PxsNPFR [4]; HEK293/PxsNPFR, 10 μM forskolin + 500 μM IBMX, 15 min, various peptide concentrations, result in words", "result": "an inhibitory effect was not observed"}, {"measurement": "G protein coupling of the peptide-PxsNPFR complex", "setting": "PxsNPFR [4]; conclusion from cAMP and Ca2+ assays, words", "result": "regulates Gq protein-mediated signalling"}, {"measurement": "feeding interval time", "setting": "P. xylostella larvae [5]", "result": "longer"}, {"measurement": "feeding time", "setting": "P. xylostella larvae [5]", "result": "unaffected"}]}]}
